Measured values from patent US8691799B2, “Materials and methods for treatment of cancer and identification of anti-cancer compounds” (priority 2001, dated 2014).

Experiments:
phospho-JNK = experiment: Western blotting for phospho-JNK; assay type: cell-based, human; conditions: A549 and MDA-MB-468 cells, up to 10 μM
Procedure: (§1) Western Blotting. Treated cell samples were lysed in 30 mM Hepes, pH 7.5, 10 mM NaCl, 5 mM MgCl2, 25 mM NaF, 1 mM EGTA, 1% Triton-X-100, 10% glycerol, 2 mM sodium orthovanadate, 10 μg/ml aprotinin, 10 μg/ml soybean trypsin inhibitor, 25 μg/ml leupeptin, 2 mM PMSF, and 6.4 mg/ml p-nitrophenylphosphate. Phospho-STAT3, phospho-AKT, phospho-MEK, and phospho-p42/p44 MAPK antibodies were obtained from Cell Signaling Technologies, Cambridge, Mass. Antibodies to STAT3, JAK2, and phospho-INK were purchased from Santa Cruz Biotechnology, Santa Cruz, Calif. Phospho-JAK2 antibody came from Upstate Biotechnology, Lake Placid, N.Y. Membranes were blocked in either 5% milk in PBS, pH 7.4, containing 0.1% Tween-20 (PBS-T) or 1% BSA in TBS, pH 7.5, containing 0.1% Tween-20 (TBS-T). Phospho-specific antibodies (excepting P-MAPK and P-JNK) were incubated in 1% BSA in TBS-T while all other antibodies were diluted in 5% milk in PBS-T for either 2 hr at room temperature or overnight at 4° C. HRP-conjugated secondary antibodies (Jackson ImmunoResearch) were diluted in 5% milk in either PBS-T or TBS-T at 1:1000 dilution for one hour at room temperature. Western blots were visualized using enhanced chemiluminescence as described previously (Blaskovich, M. A. et al. Nat. Biotechnol., 2000, 18:1065-1070).

EGFR = target: T1, EGFR (Homo sapiens, UniProt P00533); experiment: EGF-stimulation of EGFR tyrosine phosphorylation; assay type: cell-based; conditions: MCF-10A and EGFR-overexpressing NIH 3T3 cells (data not shown)
T1 construct: EGFR tyrosine phosphorylation in the breast cell line MCF-10A; endogenous in cells; host or cells: MCF-10A; also EGFR-overexpressing NIH 3T3
T1 sequence (P00533 25-1210): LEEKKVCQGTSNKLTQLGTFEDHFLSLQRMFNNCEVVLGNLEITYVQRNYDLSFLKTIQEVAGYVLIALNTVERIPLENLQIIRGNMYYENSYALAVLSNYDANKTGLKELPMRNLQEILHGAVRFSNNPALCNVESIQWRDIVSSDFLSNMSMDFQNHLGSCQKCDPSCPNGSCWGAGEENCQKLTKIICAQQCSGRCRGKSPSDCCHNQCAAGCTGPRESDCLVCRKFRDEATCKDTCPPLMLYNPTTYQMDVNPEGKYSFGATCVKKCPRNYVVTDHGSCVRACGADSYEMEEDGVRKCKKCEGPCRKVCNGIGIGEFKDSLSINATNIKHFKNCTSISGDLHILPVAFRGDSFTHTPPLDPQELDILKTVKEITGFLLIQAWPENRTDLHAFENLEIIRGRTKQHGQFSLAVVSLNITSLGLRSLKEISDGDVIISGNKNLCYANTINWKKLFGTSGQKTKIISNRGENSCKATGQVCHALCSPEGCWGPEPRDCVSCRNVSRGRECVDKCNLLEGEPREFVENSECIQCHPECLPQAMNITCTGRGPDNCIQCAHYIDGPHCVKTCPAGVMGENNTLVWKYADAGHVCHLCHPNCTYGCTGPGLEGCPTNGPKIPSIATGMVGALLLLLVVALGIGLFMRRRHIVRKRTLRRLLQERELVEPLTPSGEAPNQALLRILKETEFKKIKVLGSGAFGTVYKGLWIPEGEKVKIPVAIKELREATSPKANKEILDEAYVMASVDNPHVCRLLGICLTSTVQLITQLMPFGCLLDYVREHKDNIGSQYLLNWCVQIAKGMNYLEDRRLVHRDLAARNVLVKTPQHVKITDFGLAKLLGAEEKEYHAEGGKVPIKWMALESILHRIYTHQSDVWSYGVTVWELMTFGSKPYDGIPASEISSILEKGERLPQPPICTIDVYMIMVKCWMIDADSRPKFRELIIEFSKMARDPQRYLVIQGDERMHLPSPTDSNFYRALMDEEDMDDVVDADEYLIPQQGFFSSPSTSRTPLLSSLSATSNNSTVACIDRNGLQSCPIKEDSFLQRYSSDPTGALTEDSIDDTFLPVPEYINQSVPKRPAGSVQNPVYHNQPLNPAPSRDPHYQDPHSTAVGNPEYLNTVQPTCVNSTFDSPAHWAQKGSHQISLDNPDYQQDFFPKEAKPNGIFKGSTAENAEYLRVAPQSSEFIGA

STAT3 = experiment: Western blotting for STAT3 protein levels; assay type: cell-based, human; conditions: A549 and MDA-MB-468 cells
Procedure: as §1
Immunoprecipitation of STAT3. […]

A549 tumors = experiment: Antitumor activity, A549 xenograft in nude mice; assay type: in vivo
Excerpt: Antitumor Activity in the Nude Mouse Tumor Xenograft Model. Nude mice and C57 BL-6 black mice (National Cancer Institute, Bethesda, Md.) were maintained in accordance with the Institutional Animal Care and Use Committee (IACUC) procedures and guidelines. v-Src- and oncogenic H-Ras-transformed NIH 3T3, A549, MDA-MB-468 and Calu-1 cells were harvested, resuspended in PBS and injected s.c. into the right and left flank (10×10^6 cells per flank) of 8 week old female nude mice as reported previously (Sun, J. et al. Cancer Res., 1999, 59:4919-4926). Similarly, murine B16-F10 Melanoma cells were injected s.c. into the right and left flank (10^6 cells per flank) of C57 black mice. When tumors reached about 150 mm^3, animals were randomized (five animals per group; two tumors per animal) and dosed i.p. with 0.2 ml once daily. […] The tumor volumes were determined by measuring the length (l) and the width (w) and calculating the volume (V=1w^2/2) as described previously (Sun, J. et al. Cancer Res., 1999, 59:4919-4926). Statistical significance between control and treated animals were evaluated by using Student's t-test. For the mouse survival experiments, C57 BL-6 black mice were implanted s.c. with B16-F10 cells (10^5 to 10^6 cells per flank). […] Percent surviving mice was determined by monitoring the death of mice until all mice died. […]

[1] = test system: STAT3 DNA-binding activity; experiment: Electrophoretic mobility shift assay (EMSA) of nuclear extracts; assay type: cell-based; conditions: nuclear extracts from v-Src/NIH 3T3 and A549 cells
Procedure: Nuclear Extract Preparation and Gel Shift Assay. Nuclear extract preparation and electrophoretic mobility shift assay were carried out as previously described (Turkson, J. et al. Mol. Cell Biol., 1999, 19:7519-7528). The ^32P-radiolabeled oligonucleotide probe is hSIE (high affinity sis-inducible element, m67 variant, 5′-[…]-3′) (SEQ ID NO. 1) that binds STAT1 and STAT3.

CC(C)(O)/C=C/C(=O)[C@](C)(O)[C@H]1[C@H](O)C[C@@]2(C)[C@@H]3CC=C4[C@@H](C=C(O)C(=O)C4(C)C)[C@]3(C)C(=O)C[C@]12C [JSI-124, cucurbitacin I]
phospho-JNK levels (phospho-JNK): no inhibitory effect | EGF-stimulated EGFR tyrosine phosphorylation (EGFR): inhibited only minimally | STAT3 protein levels (STAT3): no effect on the protein levels of STAT3 and JAK2 | inhibition of A549 tumor growth, reduced dose (A549 tumors; 0.5 mg/kg/day for 23 days, nude mice (data not shown)): 52% | inhibition of A549 tumor growth (A549 tumors; 1 mg/kg/day i.p., nude mice): 76% | STAT3 DNA-binding activity (EMSA) [1]: greatly reduced
